According to US20060127894A1, “Protein associated with cell growth, differentiation, and death” (Incyte Corporation, priority 2001, published 2006):

Legend:
[1] = system: SEQ ID NO:45 expression in C3A cells; test: Microarray expression analysis of steroid-treated versus untreated C3A cells; format: cell-based, human
Description: Total RNA is isolated from tissue samples using the guanidinium thiocyanate method and poly(A)^+ RNA is purified using the oligo-(dT) cellulose method. Each poly(A)^+ RNA sample is reverse transcribed using MMLV reverse-transcriptase, 0.05 pg/μl oligo-(dT) primer (21 mer), 1×first strand buffer, 0.03 units/μL RNase inhibitor, 500 μM dATP, 500 μM dGTP, 500 μM dTTP, 40 μM dCTP, 40 μM dCTP-Cy3 (BDS) or dCTP-Cy5 (Amersham Biosciences). The reverse transcription reaction is performed in a […] containing 200 ng poly(A)^+ RNA with GEMBRIGHT kits (Incyte). Specific control poly(A)+ RNAs are synthesized by in vitro transcription from non-coding yeast genomic DNA. After incubation at 37° C. for 2 hr, each reaction sample (one with Cy3 and another with Cy5 labeling) is treated with […] of 0.5M sodium hydroxide and incubated for 20 minutes at 85° C. to the stop the reaction and degrade the RNA. Samples are purified using two successive CHROMA SPIN 30 gel filtration spin columns (CLONTECH Laboratories, Inc. (CLONTECH), Palo Alto Calif.) and after combining, both reaction samples are ethanol precipitated using 1 ml of glycogen (1 mg/ml), 60 ml sodium acetate, and 300 ml of 100% ethanol. The sample is then dried to completion using a SpeedVAC (Savant Instruments Inc., Holbrook N.Y.) and resuspended in 14 μl 5×SSC/0.2% SDS.
Sequences of the present invention are used to generate array elements. Each array element is amplified from bacterial cells containing vectors with cloned cDNA inserts. PCR amplification uses primers complementary to the vector sequences flanking the cDNA insert. Array elements are amplified in thirty cycles of PCR from an initial quantity of 1-2 ng to a final quantity greater than 5 μg. Amplified array elements are then purified using […]-400 (Amersham Biosciences).
Hybridization reactions contain 9 μl of sample mixture consisting of 0.2 μg each of Cy3 and Cy5 labeled cDNA synthesis products in 5×SSC, 0.2% SDS hybridization buffer. The sample mixture is heated to 65° C. for 5 minutes and is aliquoted onto the microarray surface and covered with an 1.8 cm^2 coverslip. The arrays are transferred to a waterproof chamber having a cavity just slightly larger than a microscope slide. The chamber is kept at 100% humidity internally by the addition of 140 μl of 5×SSC in a comer of the chamber. The chamber containing the arrays is incubated for about 6.5 hours at 60° C. The arrays are washed for 10 min at 45° C. in a first wash buffer (1×SSC, 0.1% SDS), three times for 10 minutes each at 45° C. in a second wash buffer (0.1×SSC), and dried.
Reporter-labeled hybridization complexes are detected with a microscope equipped with an Innova 70 mixed gas 10 W laser (Coherent, Inc., Santa Clara Calif.) capable of generating spectral lines at 488 nm for excitation of Cy3 and at 632 nm for excitation of CyS. The excitation laser light is focused on the array using a 20× microscope objective (Nikon, Inc., Melville N.Y.). The slide containing the array is placed on a computer-controlled X-Y stage on the microscope and raster-scanned past the objective. The 1.8 cm×1.8 cm array used in the present example is scanned with a resolution of 20 micrometers.
A grid is superimposed over the fluorescence signal image such that the signal from each spot is centered in each element of the grid. The fluorescence signal within each element is then integrated to obtain a numerical value corresponding to the average intensity of the signal. […]

[2] = cited from earlier work
[3] = system: human umbilical vein endothelial cells (HUVECs); settings: cited from earlier work
[4] = system: SEQ ID NO:33 expression in BT-20 cells; test: Microarray expression analysis of BT-20 cells treated with EGF; format: cell-based, human; settings: BT-20 breast carcinoma cells
Description: Total RNA is isolated from tissue samples using the guanidinium thiocyanate method and poly(A)^+ RNA is purified using the oligo-(dT) cellulose method. Each poly(A)^+ RNA sample is reverse transcribed using MMLV reverse-transcriptase, 0.05 pg/μl oligo-(dT) primer (21 mer), 1×first strand buffer, 0.03 units/μL RNase inhibitor, 500 μM dATP, 500 μM dGTP, 500 μM dTTP, 40 μM dCTP, 40 μM dCTP-Cy3 (BDS) or dCTP-Cy5 (Amersham Biosciences). The reverse transcription reaction is performed in a […] containing 200 ng poly(A)^+ RNA with GEMBRIGHT kits (Incyte). Specific control poly(A)+ RNAs are synthesized by in vitro transcription from non-coding yeast genomic DNA. […]
Sequences of the present invention are used to generate array elements. […] Array elements are amplified in thirty cycles of PCR from an initial quantity of 1-2 ng to a final quantity greater than 5 μg. […]
Reporter-labeled hybridization complexes are detected with a microscope equipped with an Innova 70 mixed gas 10 W laser (Coherent, Inc., Santa Clara Calif.) capable of generating spectral lines at 488 nm for excitation of Cy3 and at 632 nm for excitation of CyS. […]
A grid is superimposed over the fluorescence signal image such that the signal from each spot is centered in each element of the grid. […]

[5] = dose 10 μM, 1 hour of treatment
[6] = dose 10 μM, 3 hours of treatment

In the case of “6α-methyl-17-hydroxyprogesterone [medroxyprogesterone]”, the “expression of SEQ ID NO:45 increased in drug-treated, as compared to untreated, C3A cells” value (“expression of SEQ ID NO:45 increased” below) [1, 5] is given as “at least two-fold”, the “expression of SEQ ID NO:45 increased” value [1, 6] is given as “at least two-fold” and the “pharmacological activity relative to progesterone” value ([2]; greater than progesterone) is given as “about 15 times”.

For `C[C@H]1C[C@H]2[C@@H]3CCC4=CC(=O)C=C[C@]4(C)[C@@]3(Cl)[C@@H](O)C[C@]2(C)[C@@]1(O)C(=O)CO` [beclomethasone], the “expression of SEQ ID NO:45 increased” value ([1]; dose 1 μM, 3 hours of treatment) was “at least two-fold”, the “expression of SEQ ID NO:45 increased” value [1, 5] was “at least two-fold” and the “expression of SEQ ID NO:45 increased” value [1, 6] was “at least two-fold”. The “anti-inflammatory and vasoconstrictive effects relative to hydrocortisone” value ([2]; intranasal, greater than those produced by hydrocortisone) was 5000 times.

In the case of TNF-α, the “increase of cellular secretions of MCP-1 compared with untreated cells” value [3] is listed as 119 fold.

In the case of “epidermal growth factor: a potent mitogen (NSDSECPLSHDGYCLHDGVCMYIEALDKYACNCVVGYIGERCQYRDLKWWELR; Epidermal growth factor; UniProt P01133 971-1023, looked up)”, the “expression of SEQ ID NO:33 down-regulated on treatment of BT-20 cells” value [4] is reported as “at least two-fold”.
